pIC50: −log10 of the molar value.

We go through 29 compounds from patent US6855843B2, “Inhibitors of α4 mediated cell adhesion” (Tanabe Seiyaku Co., Ltd., priority 1998, dated 2005).

The assay deals with T1, α4β7 (adhesion of RPMI cells to CS-1) (Homo sapiens, UniProt P13612+P26010).
T1 construct: endogenous in cells
T1 sequence (P13612 34-1032): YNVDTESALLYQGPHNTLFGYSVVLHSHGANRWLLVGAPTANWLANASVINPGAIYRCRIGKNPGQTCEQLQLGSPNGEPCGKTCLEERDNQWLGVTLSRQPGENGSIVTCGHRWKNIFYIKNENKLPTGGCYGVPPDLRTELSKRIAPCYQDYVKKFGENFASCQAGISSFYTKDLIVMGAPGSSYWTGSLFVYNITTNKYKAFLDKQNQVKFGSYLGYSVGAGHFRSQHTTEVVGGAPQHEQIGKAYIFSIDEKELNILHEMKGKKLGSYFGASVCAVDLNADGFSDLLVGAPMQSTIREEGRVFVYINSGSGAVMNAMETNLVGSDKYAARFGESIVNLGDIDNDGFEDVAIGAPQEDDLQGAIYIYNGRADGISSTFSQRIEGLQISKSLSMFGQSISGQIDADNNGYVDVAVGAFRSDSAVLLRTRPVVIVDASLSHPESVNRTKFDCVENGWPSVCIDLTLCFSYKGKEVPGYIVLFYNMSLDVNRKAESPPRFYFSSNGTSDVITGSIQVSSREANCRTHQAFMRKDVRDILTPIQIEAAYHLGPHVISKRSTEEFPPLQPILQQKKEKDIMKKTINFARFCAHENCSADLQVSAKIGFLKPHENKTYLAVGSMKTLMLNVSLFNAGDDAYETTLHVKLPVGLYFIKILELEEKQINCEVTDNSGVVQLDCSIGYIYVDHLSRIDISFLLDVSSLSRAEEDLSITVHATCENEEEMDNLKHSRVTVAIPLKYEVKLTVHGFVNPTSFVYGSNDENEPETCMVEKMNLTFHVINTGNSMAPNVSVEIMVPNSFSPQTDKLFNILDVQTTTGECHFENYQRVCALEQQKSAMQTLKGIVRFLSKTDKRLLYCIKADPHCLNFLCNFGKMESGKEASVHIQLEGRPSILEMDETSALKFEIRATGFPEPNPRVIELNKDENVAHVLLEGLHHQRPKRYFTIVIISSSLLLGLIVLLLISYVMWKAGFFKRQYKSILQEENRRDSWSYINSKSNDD
T1 sequence (P26010 20-798): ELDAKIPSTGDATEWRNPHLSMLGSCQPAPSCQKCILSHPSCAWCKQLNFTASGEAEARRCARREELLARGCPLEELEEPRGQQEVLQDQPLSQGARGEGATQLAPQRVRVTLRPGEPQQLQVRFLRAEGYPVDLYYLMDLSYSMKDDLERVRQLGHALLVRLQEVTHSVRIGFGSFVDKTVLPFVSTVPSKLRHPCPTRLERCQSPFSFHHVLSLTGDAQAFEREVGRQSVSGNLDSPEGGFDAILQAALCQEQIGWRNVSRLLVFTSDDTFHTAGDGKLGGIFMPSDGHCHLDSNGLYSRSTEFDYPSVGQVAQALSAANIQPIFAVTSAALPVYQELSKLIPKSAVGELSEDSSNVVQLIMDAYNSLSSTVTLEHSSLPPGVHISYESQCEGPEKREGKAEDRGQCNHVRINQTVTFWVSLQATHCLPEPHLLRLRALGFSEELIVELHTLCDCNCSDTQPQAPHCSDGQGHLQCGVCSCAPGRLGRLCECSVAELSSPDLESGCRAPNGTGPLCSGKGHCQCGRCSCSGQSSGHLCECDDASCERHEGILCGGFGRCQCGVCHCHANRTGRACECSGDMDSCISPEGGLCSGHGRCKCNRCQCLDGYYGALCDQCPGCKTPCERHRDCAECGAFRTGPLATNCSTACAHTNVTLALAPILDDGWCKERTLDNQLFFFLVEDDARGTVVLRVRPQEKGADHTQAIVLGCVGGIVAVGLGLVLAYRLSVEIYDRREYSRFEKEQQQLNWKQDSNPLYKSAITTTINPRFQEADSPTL
Nature of the assay: RPMI-CS-1 cell adhesion assay. In kind it is cell-based. To be noted: adhesion of RPMI B-cell line (expresses α4β7) to CS-1 peptide coated microwells; read-out: RPMI-CS-1 IC50 value range. As to the method: RPMI-CS-1 Cell Adhesion Assay:
The test compounds were added in increasing concentrations to RPMI cells and then the cell-compound mixture was added to CS-1 coated microwells. The plates were incubated, washed and the percentage of attached cells were quantitated.
The CS-1 derived peptide, […], and the scrambled control peptide, […], were synthesized at Tanabe Research Laboratories, USA, Inc. on a Beckman 990 synthesizer using t-Boc methodology. […] Microtiter plates were coated with 20 μg/ml human serum albumin (HSA) for 2 hours at room temperature, washed once with PBS and derivatized with 10 μg/ml SPDP for 1 hour. […] Unbound peptide was removed from the plates by washing with PBS. To block non-reacted sites, the plates were coated with 100 μl of a 2.5 mg/ml BSA solution in PBS for one hour at 37° C. 100 μl of RPMI cells (2.5×10^6 cells/ml) in Dulbecco's Modified Eagles Medium (DMEM) plus 0.25% ovalbumin were added to peptide coated dishes and incubated for 1 hour at 37° C. […] To do this, the enzyme substrate p-nitrophenyl-N-acetyl-β-D-glucoseaminide is dissolved at 7.5 mM in 0.1 M citrate buffer pH 5 and then mixed with an equal volume of 0.5% Triton X100. 50 μl of the substrate solution was added to the plates and the plates were incubated at 37° C. for 60 minutes.
In this assay, IC50 value ranges (μM) are depicted by A, B, C and D. These ranges as follows. D>5≧C>1≧B>0.3≧A
For orientation: pIC50 means the negative decadic logarithm of the IC50, by convention in mol/L. `COc1ccc(Br)c(OC)c1-c1ccc(C[C@H](NC(=O)c2c(Cl)cccc2Cl)C(=O)O)cc1` [Example 322, N-(2,6-Dichlorobenzoyl)-4-(2,6-dimethoxy-3-bromophenyl)-L-phenylalanine]: the pIC50 is > 6.52.
Take `Cc1ccc(-c2ccc(C[C@H](NC(=O)c3c(Cl)cccc3Cl)C(=O)O)cc2)cc1` [Example 117]: the pIC50 was 5.30 to 6.00.
`CS(=O)(=O)c1ccccc1-c1ccc(C[C@H](NC(=O)c2c(Cl)cccc2Cl)C(=O)O)cc1` [Example 152B, N-(2,6-Dichlorobenzoyl)-4-[2-(methylsulfonyl)phenyl]-L-phenyl-alanine]: the pIC50 was > 6.52.
As for `COc1ccccc1-c1ccc(C[C@H](NC(=O)c2ccc(N)cc2Cl)C(=O)O)cc1` [Example 63, N-(4-Amino-2-chlorobenzoyl)-4-(2-methoxyphenyl)-L-phenylalanine], the figure is 6.00 to 6.52; as for `O=C(N[C@@H](Cc1ccc(-c2ccncc2)cc1)C(=O)O)c1c(Cl)cccc1Cl` [Example 217, N-(2,6-Dichlorobenzoyl)-4-(4-pyridyl)-L-phenylalanine], 5.30 to 6.00.
On to `COc1ccccc1-c1ccc(C[C@H](NC(=O)[C@@H](C)c2ccccc2)C(=O)O)cc1` [Example 2, N-[(S)-2-Phenylpropionyl]-4-(2-methoxyphenyl)-L-phenylalanine], for which the pIC50 is 5.30 to 6.00.
For the compound `COc1cc(O)cc(OC)c1-c1ccc(C[C@H](NC(=O)c2c(Cl)cccc2Cl)C(=O)O)cc1` [Example 346, N-(2,6-Dichlorobenzoyl)-4-(2,6-dimethoxy-4-hydroxyphenyl)-L-phenylalanine], the pIC50 is > 6.52.
Take `NC(=O)Nc1ccccc1-c1ccc(C[C@H](NC(=O)c2c(Cl)cccc2Cl)C(=O)O)cc1` [Example 28, N-(2,6-Dichlorobenzoyl)-4-(2-ureidophenyl)-L-phenylalanine]: the pIC50 was 6.00 to 6.52.
As to `COc1ccccc1-c1ccc(C[C@H](NC(=O)c2cccc(NS(=O)(=O)C(F)(F)F)c2Cl)C(=O)O)cc1` [Example 181, N-[2-Chloro-3-[(trifluoromethanesulfonyl)amino]-benzoyl]-4-(2-methoxyphenyl)-L-phenylalanine], the pIC50 is 6.00 to 6.52.
Consider `COc1ccccc1-c1ccc(C[C@H](NC(=O)c2cccnc2Cl)C(=O)O)cc1` [Example 90], for which the pIC50 is 6.00 to 6.52.
For the compound `COCc1ccccc1-c1ccc(C[C@H](NC(=O)c2c(Cl)cccc2Cl)C(=O)O)cc1` [Example 51, N-(2,6-Dichlorobenzoyl)-4-[2-(methoxymethyl)phenyl]-L-phenylalanine], the negative-log IC50 (pIC50) is 6.00 to 6.52.
On to `COc1ncnc(OC)c1-c1ccc(C[C@H](NC(=O)c2c(Cl)cccc2Cl)C(=O)O)cc1` [Example 144], for which the negative logarithm of the IC50 (pIC50) is > 6.52.
As for `COc1ccccc1-c1ccc(C[C@H](NC(=O)c2ccc(Cl)nc2)C(=O)O)cc1` [Example 93], the figure is < 5.30.
As for `COc1cccc(OC)c1-c1ccc(C[C@H](NC(=O)c2ccc(NS(=O)(=O)C(F)(F)F)cc2Cl)C(=O)O)cc1` [Example 183, N-[2-Chloro-4-[(trifluoromethanesulfonyl)amino]-benzoyl]-4-(2,6-dimethoxyphenyl)-L-phenylalanine], the pIC50 is > 6.52.
“N-(2,6-Dichlorobenzoyl)-4-(2,6-dimethoxyphenyl)-L-phenylalanine 2-pyridylmethyl ester [Example 272]”: the pIC50 is 6.00 to 6.52.
As for `COC(=O)[C@H](Cc1ccc(-c2cccnc2)cc1)NC(=O)c1c(Cl)cccc1Cl` [Example 127], the figure is < 5.30; as for `COc1cccc(OC)c1-c1ccc(C[C@H](NC(=O)c2c(C)cccc2Cl)C(=O)O)cc1` [Example 277], > 6.52.
As to `CCN(CC)Cc1cc(OC)c(-c2ccc(C[C@H](NC(=O)c3c(Cl)cccc3Cl)C(=O)O)cc2)c(OC)c1` [Example 132], the pIC50 is > 6.52.
For `COc1cc(F)c(-c2ccc(C[C@H](NC(=O)c3c(Cl)cccc3Cl)C(=O)O)cc2)c(OC)c1` [Example 139], the pIC50 was > 6.52.
Turning to `CCOC(=O)Nc1ccc(C(=O)N[C@@H](Cc2ccc(-c3ccccc3OC)cc2)C(=O)O)c(Cl)c1` [Example 66, N-[2-Chloro-4-(ethoxycarbonylamino)benzoyl]-4-(2-methoxyphenyl)-L-phenylalanine], the pIC50 was > 6.52.
For the compound `Cc1noc(C)c1COc1ccccc1-c1ccc(C[C@H](NC(=O)c2c(Cl)cccc2Cl)C(=O)O)cc1` [Example 41], the pIC50 was 5.30 to 6.00.
As for `N#Cc1ccccc1-c1ccc(C[C@H](NC(=O)c2c(Cl)cccc2Cl)C(=O)O)cc1` [Example 138], the pIC50 is > 6.52.
Turning to `COc1ccccc1-c1ccc(C[C@H](NC(=O)c2ccc([N+](=O)[O-])cc2)C(=O)O)cc1` [Example 101], the pIC50 was < 5.30.
`O=C(O)C=Cc1ccccc1-c1ccc(C[C@H](NC(=O)c2c(Cl)cccc2Cl)C(=O)O)cc1` (mixture of isomers) [Example 49, N-(2,6-Dichlorobenzoyl)-4-[2-(2-carboxyethenyl)phenyl]-L-phenylalanine]: the pIC50 is 6.00 to 6.52.
In the case of `COc1cc(CN2CCNCC2)cc(OC)c1-c1ccc(C[C@H](NC(=O)c2c(Cl)cccc2Cl)C(=O)O)cc1` [Example 262, N-(2,6-Dichlorobenzoyl)-4-[2,6-dimethoxy-4-[(1-piperazinyl)methyl]phenyl]-L-phenylalanine], the pIC50 was > 6.52.
In the case of `COc1ccccc1-c1ccc(C[C@H](NC(=O)c2ccc(NS(=O)(=O)c3ccccc3C)cc2Cl)C(=O)O)cc1` [Example 192, N-[2-Chloro-4-[[(2-methylphenyl)sulfonyl]amino]benzoyl]-4-(2-methoxyphenyl)-L-phenylalanine], the pIC50 was > 6.52.
As to `O=C(N[C@@H](Cc1ccc(-c2ccccc2O)cc1)C(=O)O)c1c(Cl)cccc1Cl` [Example 30, N-(2,6-Dichlorobenzoyl)-4-(2-hydroxyphenyl)-L-phenylalanine], the pIC50 is 6.00 to 6.52.
With `CC(C)(C)OC(=O)Nc1ccccc1-c1ccc(C[C@H](NC(=O)c2c(Cl)cccc2Cl)C(=O)O)cc1` [Example 22, N-(2,6-Dichlorobenzoyl)-4-[2-(tertbutoxycarbonylamino)phenyl]-L-phenylalanine], the pIC50 was 5.30 to 6.00.
On to `N#CCOc1ccc2c(c1-c1ccc(C[C@H](NC(=O)c3c(Cl)cccc3Cl)C(=O)O)cc1)OCO2` [Example 239, N-(2,6-Dichlorobenzoyl)-4-[2,3-methylenedioxy-6-(cyanomethoxy)phenyl]-L-phenylalanine], for which the pIC50 was > 6.52.
